For one test, the target named is T1, Aromatase (Homo sapiens, UniProt P11511).
T1 sequence (P11511 whole entry): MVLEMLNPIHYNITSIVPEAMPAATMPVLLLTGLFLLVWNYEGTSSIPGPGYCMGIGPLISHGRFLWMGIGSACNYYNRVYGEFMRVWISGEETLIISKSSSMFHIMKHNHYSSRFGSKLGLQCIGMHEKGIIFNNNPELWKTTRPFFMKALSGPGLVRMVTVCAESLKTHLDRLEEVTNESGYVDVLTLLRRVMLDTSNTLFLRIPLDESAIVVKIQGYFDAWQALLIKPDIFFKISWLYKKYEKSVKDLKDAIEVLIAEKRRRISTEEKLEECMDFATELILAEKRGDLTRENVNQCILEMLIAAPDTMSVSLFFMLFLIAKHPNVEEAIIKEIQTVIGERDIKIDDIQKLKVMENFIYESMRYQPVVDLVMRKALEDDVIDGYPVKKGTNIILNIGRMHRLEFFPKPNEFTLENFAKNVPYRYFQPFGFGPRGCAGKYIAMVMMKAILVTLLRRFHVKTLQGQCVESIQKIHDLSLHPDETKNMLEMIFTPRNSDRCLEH
The test can be described thus: Inhibition of human aromatase assessed as reduction in fluorescence intensity preincubated with NADPH regenerating system for 10 mins followed by substrate addition incubated for 60 mins by fluorescence based microplate reader analysis.

A further test deals with MCF7. The test can be described thus: Antiproliferative activity against human MCF7 cells assessed as reduction in cell viability after 72 hrs by cell counter method. Type of test: functional, cell-based. To be noted: MCF7, 72 h.
The subject of the next test is MCF-10A. The test can be described thus: Antiproliferative activity against human MCF-10A cells assessed as reduction in cell viability after 72 hrs by cell counter method. Type of test: functional, cell-based.
Another test deals with T2, Estrogen receptor (Homo sapiens, UniProt P03372).
T2 sequence (P03372 whole entry): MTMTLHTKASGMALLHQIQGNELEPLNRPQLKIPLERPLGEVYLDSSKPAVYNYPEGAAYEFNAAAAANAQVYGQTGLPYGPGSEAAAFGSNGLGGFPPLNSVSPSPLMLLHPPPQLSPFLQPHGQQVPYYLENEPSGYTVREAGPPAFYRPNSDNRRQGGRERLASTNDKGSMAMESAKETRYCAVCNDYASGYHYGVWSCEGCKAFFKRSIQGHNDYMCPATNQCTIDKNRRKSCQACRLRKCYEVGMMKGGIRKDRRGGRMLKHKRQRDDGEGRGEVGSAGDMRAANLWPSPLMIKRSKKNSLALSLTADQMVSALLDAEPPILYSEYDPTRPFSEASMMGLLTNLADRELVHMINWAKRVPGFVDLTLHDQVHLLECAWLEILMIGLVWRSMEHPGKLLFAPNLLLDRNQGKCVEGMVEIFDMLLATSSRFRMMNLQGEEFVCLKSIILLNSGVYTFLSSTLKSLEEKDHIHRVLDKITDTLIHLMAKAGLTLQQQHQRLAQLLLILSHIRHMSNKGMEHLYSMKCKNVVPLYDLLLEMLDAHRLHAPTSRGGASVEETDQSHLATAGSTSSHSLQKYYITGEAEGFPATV
The test can be described thus: Binding affinity to human ERalpha measured after 2 hrs by fluorescence polarization plate reader. For orientation: Polarisation of emitted light reports the rotation of a fluorescent probe.

The structures appear in SMILES notation.

As to `CC(Cc1cccnc1)=C(c1ccc(O)cc1)c1ccc(O)cc1`, the IC50 (commonly the concentration that inhibits the measured activity by half) at Aromatase was 0.861 µM; in the test on MCF7, 41.2 µM; with MCF-10A, 58.7 µM; on Estrogen receptor, 1.77 µM.
The matching figures for `CCC(Cn1ccnc1)=C(c1ccc(O)cc1)c1ccc(O)cc1`: 0.035 µM, 24.3 µM, 34.7 µM and 1.8 µM.
The matching figures for `CCC(CCc1c[nH]cn1)=C(c1ccc(O)cc1)c1ccc(O)cc1`: 0.052 µM, 37.1 µM, more than 100 µM and 0.197 µM.
For the compound `CCC(=C(c1ccc(O)cc1)c1ccc(O)cc1)c1c[nH]cn1`, the IC50 on Aromatase was 0.952 µM; with MCF7 it was 60 µM; in the test with MCF-10A it was more than 100 µM; at Estrogen receptor it was 1.07 µM.
Regarding `CC(=C(c1ccc(O)cc1)c1ccc(O)cc1)c1cccnc1`, the IC50 at Aromatase was more than 10 µM; in the test on MCF7, 5.3 µM; with MCF-10A it was 41.7 µM; at Estrogen receptor it was 0.076 µM.
The matching figures for `CCC(Cc1cccnc1)=C(c1ccc(O)cc1)c1ccc(O)cc1`: 0.023 µM, 27.6 µM, more than 100 µM and 0.019 µM.
The matching figures for `CC(CCc1c[nH]cn1)=C(c1ccc(O)cc1)c1ccc(O)cc1`: 0.063 µM, 39.8 µM, 50.4 µM and 1.74 µM.
With `CCC(=C(c1ccc(O)cc1)c1ccc(O)cc1)c1cccnc1`, the half-inhibitory concentration (IC50) is 1.25 µM at Aromatase, 10 µM in the test on MCF7, 17 µM in the test on MCF-10A and more than 10 µM at Estrogen receptor.
Regarding `CC(=C(c1ccc(O)cc1)c1ccc(O)cc1)c1c[nH]cn1`, the IC50 at Aromatase is 0.596 µM; in the test with MCF7, 58 µM; in the test with MCF-10A, more than 100 µM; on Estrogen receptor, 0.223 µM.
The corresponding values for `CC(Cn1ccnc1)=C(c1ccc(O)cc1)c1ccc(O)cc1` are 1 µM, 37 µM, 52.5 µM and 4.95 µM.
The matching figures for `CCC(CCc1cccnc1)=C(c1ccc(O)cc1)c1ccc(O)cc1`: 0.9 µM, 42.1 µM, 20 µM and 0.033 µM.
The matching figures for `CC(CCc1cccnc1)=C(c1ccc(O)cc1)c1ccc(O)cc1`: 3.24 µM, more than 100 µM, more than 100 µM and 0.313 µM.
Turning to `CC/C(=C(\c1ccc(O)cc1)c1ccc(OCCNC)cc1)c1ccccc1` [ENDOXIFEN], the IC50 at Aromatase was more than 10 µM; in the test with MCF7 it was 0.1 µM; with MCF-10A, more than 10 µM; at Estrogen receptor, 0.03 µM.
`N#Cc1ccc(C(c2ccc(C#N)cc2)n2cncn2)cc1` [LETROZOLE]: the 50% inhibitory concentration (IC50) with MCF7 was 4.1 µM; in the test on MCF-10A, more than 10 µM; on Estrogen receptor, more than 10 µM.

Source of the values: ChEMBL document CHEMBL5036334, “Balanced dual acting compounds targeting aromatase and estrogen receptor α as an emerging therapeutic opportunity to counteract estrogen responsive breast cancer” (Eur J Med Chem, 2021).
